Test results published in the supplement of paper PMC11061612.

Columns and labels:
Assay in all cases: Bliss excess, mean over the matrix (fraction); higher = more synergy
[1] = test system: CAL-148 (Breast Carcinoma)
In short: (§1)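 Cell lines in DMEM/F12 or RPMI with 10% FBS were plated in 1536-well plates, held 24 hours at 37°C, 5% CO2, then given two-drug dose matrices for 72 hours (DMSO typically 0.2%). Viability was read by CellTiter-Glo 2.0 luminescence and scaled as inhibition from 0 (vehicle wells) to 1 (blank wells). Combination Emax is the second-highest inhibition in the matrix; Bliss excess is observed combination effect minus expected EA + EB − EA·EB, EA and EB being single-agent effects.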

[2] = test system: COLO-205 (Colorectal Carcinoma)
In short: as §1

[3] = test system: DoTc2-4510 (Cervical Carcinoma)
In short: as §1

[4] = test system: EC-GI-10 (Esophageal Squamous Cell Carcinoma)
In short: as §1

[5] = test system: HCC-78 (Lung Adenocarcinoma)
In short: as §1

[6] = test system: HCC1806 (Breast Carcinoma)
In short: as §1

[7] = test system: HO-1-N-1 (Oral Cavity Carcinoma)
In short: as §1

HOS (Osteosarcoma) = test system: HOS (Osteosarcoma)
In short: as §1

[8] = test system: HT-1376 (Bladder Carcinoma)
In short: as §1

[9] = test system: Hs-578-T (Breast Carcinoma)
In short: as §1

[10] = test system: KP-1N (Pancreatic Carcinoma)
In short: as §1

[11] = test system: KURAMOCHI (Ovarian Carcinoma)
In short: as §1

[12] = test system: KYSE-520 (Esophageal Squamous Cell Carcinoma)
In short: as §1

[13] = test system: LNCaP-Clone-FGC (Prostate Carcinoma)
In short: as §1

[14] = test system: LS-180 (Colorectal Carcinoma)
In short: as §1

NB10 (Neuroblastoma) = test system: NB10 (Neuroblastoma)
In short: as §1

[15] = test system: NCI-H82 (Small Cell Lung Carcinoma)
In short: as §1

[16] = test system: OVCA420 (Ovarian Carcinoma)
In short: as §1

[17] = test system: RO82-W-1 (Thyroid Gland Carcinoma)
In short: as §1

[18] = test system: TCCSUP (Bladder Carcinoma)
In short: as §1

| SMILES | Bliss excess [1] | Bliss excess [2] | Bliss excess [3] | Bliss excess [4] | Bliss excess [5] | Bliss excess [6] | Bliss excess [7] | Bliss excess (HOS (Osteosarcoma)) | Bliss excess [8] | Bliss excess [9] | Bliss excess [10] | Bliss excess [11] | Bliss excess [12] | Bliss excess [13] | Bliss excess [14] | Bliss excess (NB10 (Neuroblastoma)) | Bliss excess [15] | Bliss excess [16] | Bliss excess [17] | Bliss excess [18] |
| --- | --- | --- | --- | --- | --- | --- | --- | --- | --- | --- | --- | --- | --- | --- | --- | --- | --- | --- | --- | --- |
| NC1(C(=O)N[C@@H](CCO)c2ccc(Cl)cc2)CCN(c2ncnc3[nH]ccc23)CC1 [Capivasertib] + CC(=O)c1c(C)c2cnc(Nc3ccc(N4CCNCC4)cn3)nc2n(C2CCCC2)c1=O [Palbociclib] (first compound max 10 µM, 7x7, partner max 10 µM) | -0.0215 | 0.0317 | -0.0983 | -0.0056 | -0.0134 | 0.0075 | 0.026 | 0.0023 | -0.0388 | 0.0324 | 0.0023 | -0.0124 | -0.0342 | 0.0242 | 0.0189 | 0.0232 | -0.0229 | 0.0261 | -0.0125 | 0.0372 |
| NC1(C(=O)N[C@@H](CCO)c2ccc(Cl)cc2)CCN(c2ncnc3[nH]ccc23)CC1 [Capivasertib] + CC(C)n1c(=O)n(C)c2cnc3cc(F)c(-c4ccc(OCCCN5CCCCC5)nc4)cc3c21 [AZD1390] (first compound max 10 µM, 7x7, partner max 0.3 µM) | -0.0509 | -0.0605 | -0.0976 | -0.0418 | -0.0434 | -0.0732 | 0.0055 | -0.0278 | -0.0399 | -0.0363 | -0.0767 | -0.0085 | -0.0364 | -0.0681 | -0.0332 | -0.0544 | 0.0005 | -0.0406 | -0.0236 | -0.084 |
| NC1(C(=O)N[C@@H](CCO)c2ccc(Cl)cc2)CCN(c2ncnc3[nH]ccc23)CC1 [Capivasertib] + CCN(CCO)CCCOc1ccc2c(Nc3cc(CC(=O)Nc4cccc(F)c4)[nH]n3)ncnc2c1 [AZD2811] (first compound max 10 µM, 7x7, partner max 1 µM) | -0.0142 | -0.0551 | -0.0749 | 0.06 | -0.015 | 0.0012 | -0.046 | -0.0107 | -0.0314 | -0.036 | -0.0423 | -0.0444 | -0.0495 | 0.006 | -0.0053 | -0.0793 | 0.0054 | -0.017 | -0.0598 | -0.0397 |
| NC1(C(=O)N[C@@H](CCO)c2ccc(Cl)cc2)CCN(c2ncnc3[nH]ccc23)CC1 [Capivasertib] + COc1nnc2ccc(N3CCC(c4ccc(OCCN5CCN(C)C(=O)[C@H]5C)cc4)CC3)nn12 [AZD5153] (first compound max 10 µM, 7x7, partner max 1 µM) | 0.0504 | 0.0237 | -0.0084 | 0.0434 | 0.0193 | -0.003 | 0.0214 | 0.041 | -0.0317 | 0.06 | 0.0274 | -0.0158 | -0.0509 | -0.0071 | -0.0055 | 0.0121 | -0.139 | -0.0496 | -0.0585 | 0.0311 |
| NC1(C(=O)N[C@@H](CCO)c2ccc(Cl)cc2)CCN(c2ncnc3[nH]ccc23)CC1 [Capivasertib] + C[C@@H]1COCCN1C2=NC(=NC(=C2)C3(CC3)[S@](=N)(=O)C)C4=C5C=CNC5=NC=C4 [AZD6738] (first compound max 10 µM, 7x7, partner max 10 µM) | 0.0222 | 0.0092 | -0.0192 | -0.0804 | -0.0239 | -0.0333 | -0.0027 | -0.0463 | -0.0153 | -0.0739 | -0.0824 | -0.0376 | -0.0371 | 0.0099 | -0.159 | -0.0364 | -0.0279 | -0.0468 | -0.0247 | -0.0312 |
| NC1(C(=O)N[C@@H](CCO)c2ccc(Cl)cc2)CCN(c2ncnc3[nH]ccc23)CC1 [Capivasertib] + Cn1cnc2c(F)c(Nc3ccc(Br)cc3Cl)c(C(=O)NOCCO)cc21 [Selumetinib] (first compound max 10 µM, 7x7, partner max 10 µM) | 0.0597 | -0.0598 | 0.0133 | 0.0744 | -0.009 | 0.0578 | 0.105 | 0.0007 | -0.0149 | -0.0194 | 0.0357 | 0.0079 | -0.042 | -0.0143 | -0.0247 | 0.037 | -0.131 | 0.0639 | -0.0063 | -0.0385 |
| Cc1nc(Nc2ncc(C(=O)Nc3c(C)cccc3Cl)s2)cc(N2CCN(CCO)CC2)n1 [Dasatinib] + CC(=O)Nc1cccc(-n2c(=O)n(C3CC3)c(=O)c3c(Nc4ccc(I)cc4F)n(C)c(=O)c(C)c32)c1 [Trametinib] (first compound max 2 µM, 7x7, partner max 1 µM) | -0.0252 | -0.128 | -0.0338 | -0.0871 | -0.0361 | -0.0461 | 0.0676 | -0.0361 | 0.0158 | -0.0526 | 0.0493 | 0.0706 | -0.0902 | -0.0361 | 0.0883 | -0.0024 | -0.0149 | 0.025 | -0.0202 | -0.0443 |
| COc1cccc2c1C(=O)c1c(O)c3c(c(O)c1C2=O)C[C@@](O)(C(=O)CO)C[C@@H]3O[C@H]1C[C@H](N)[C@H](O)[C@H](C)O1 [Doxorubicin] + Cc1cc2ncnn2cc1Nc1ncc2c(n1)n(C1CCOCC1)c(=O)n2C [AZD7648] (first compound max 1 µM, 7x7, partner max 10 µM) | 0.165 | -0.0041 | 0.0248 | 0.0887 | 0.049 | 0.0499 | 0.0808 | 0.145 | -0.0544 | 0.0412 | 0.0574 | 0.0251 | -0.0086 | 0.0417 | 0.0033 | 0.0799 | 0.0827 | 0.0022 | -0.0346 | 0.0282 |
| COc1cc2ncnc(Nc3ccc(F)c(Cl)c3)c2cc1OCCCN1CCOCC1 [Gefitinib] + CC(C)n1c(=O)n(C)c2cnc3cc(F)c(-c4ccc(OCCCN5CCCCC5)nc4)cc3c21 [AZD1390] (first compound max 10 µM, 7x7, partner max 0.3 µM) | -0.0344 | -0.0578 | -0.0601 | -0.0526 | -0.0525 | -0.0425 | -0.0506 | -0.0491 | -0.0387 | -0.0685 | -0.0625 | -0.0401 | -0.043 | -0.0491 | -0.0623 | -0.0629 | -0.0088 | -0.0193 | -0.0586 | -0.0593 |
| CS(=O)(=O)CCNCc1ccc(-c2ccc3ncnc(Nc4ccc(OCc5cccc(F)c5)c(Cl)c4)c3c2)o1 [Lapatinib] + C[C@@H](Oc1cc(-c2cnn(C3CCNCC3)c2)cnc1N)c1c(Cl)ccc(F)c1Cl [Crizotinib] (first compound max 10 µM, 7x7, partner max 10 µM) | -0.0105 | -0.0261 | -0.0321 | -0.0379 | -0.0289 | -0.0266 | -0.0493 | 0.0138 | -0.0343 | -0.0984 | -0.0435 | -0.0794 | -0.0352 | -0.0575 | 0.0173 | -0.0771 | -0.0273 | 0.0287 | -0.0392 | -0.0611 |
| CC(=O)c1c(C)c2cnc(Nc3ccc(N4CCNCC4)cn3)nc2n(C2CCCC2)c1=O [Palbociclib] + CC1(C)CCC(CN2CCN(c3ccc(C(=O)NS(=O)(=O)c4ccc(NCC5CCOCC5)c([N+](=O)[O-])c4)c(Oc4cnc5[nH]ccc5c4)c3)CC2)=C(c2ccc(Cl)cc2)C1 [Venetoclax] (first compound max 10 µM, 7x7, partner max 1 µM) | -0.0161 | -0.0065 | -0.058 | -0.0031 | -0.0244 | -0.0213 | -0.0322 | -0.0218 | -0.0453 | -0.0447 | -0.0396 | -0.0418 | -0.0442 | 0.0267 | -0.0124 | 0.0062 | -0.0648 | -0.0468 | -0.0825 | -0.0508 |
| CC(=O)c1c(C)c2cnc(Nc3ccc(N4CCNCC4)cn3)nc2n(C2CCCC2)c1=O [Palbociclib] + Cc1c2c(nn1C)CSCc1cc(n(C)n1)CSc1cc(c3ccccc3c1)OCCCc1c(C(=O)O)n(C)c3c-2c(Cl)ccc13 [AZD5991] (first compound max 10 µM, 7x7, partner max 1 µM) | -0.0063 | -0.0487 | -0.0143 | 0.0305 | -0.0015 | -0.0164 | -0.0554 | -0.0182 | -0.0073 | 0.0238 | -0.0384 | 0.0188 | -0.0686 | 0.0049 | -0.0515 | 0.0435 | -0.0534 | -0.0313 | -0.0283 | -0.0395 |
| CC(=O)c1c(C)c2cnc(Nc3ccc(N4CCNCC4)cn3)nc2n(C2CCCC2)c1=O [Palbociclib] + Cn1cnc2c(F)c(Nc3ccc(Br)cc3Cl)c(C(=O)NOCCO)cc21 [Selumetinib] (first compound max 10 µM, 7x7, partner max 10 µM) | -0.0462 | -0.081 | -0.0384 | -0.0407 | -0.0189 | 0.0382 | 0.0927 | 0.0109 | -0.047 | 0.0135 | -0.0715 | 0.0078 | 0.0617 | 0.0237 | 0.0098 | 0.0998 | -0.0216 | -0.0157 | -0.0414 | -0.0438 |
| COc1cccc(OCCCN)c1-c1cc(Nc2cnc(C#N)cn2)n[nH]1 [Prexasertib] + C=CCn1c(=O)c2cnc(Nc3ccc(N4CCN(C)CC4)cc3)nc2n1-c1cccc(C(C)(C)O)n1 [AZD1775] (first compound max 1 µM, partner max 1 µM) | 0.136 | 0.125 | 0.048 | 0.077 | 0.0774 | 0.0552 | 0.104 | 0.0888 | -0.0538 | -0.0242 | 0.0763 | 0.0282 | 0.0142 | -0.0172 | 0.184 | 0.13 | 0.0778 | 0.0044 | -0.126 | 0.0389 |
| COc1cccc(OCCCN)c1-c1cc(Nc2cnc(C#N)cn2)n[nH]1 [Prexasertib] + CCc1c2c(nc3ccc(O)cc13)-c1cc3c(c(=O)n1C2)COC(=O)[C@]3(O)CC [SN-38] (first compound max 1 µM, 7x7, partner max 0.3 µM) | -0.0388 | 0.153 | 0.0167 | 0.0252 | -0.0337 | -0.001 | -0.0054 | 0.0409 | -0.0265 | 0.0856 | 0 | 0.0311 | 0.048 | -0.0782 | -0.0629 | -0.0986 | 0.0347 | 0.0326 | 0.0431 | 0.0743 |
